# Test results from paper PMC9025901, “New Genetic Bomb Trigger: Design, Synthesis, Molecular Dynamics Simulation, and Biological Evaluation of Novel BIBR1532-Related Analogs Targeting Telomerase against Non-Small Cell Lung Cancer” (Pharmaceuticals, 2022).
# How the values were obtained:
# OVCAR-3 = test: NCI-60 in vitro anticancer screening (SRB); conditions: OVCAR-3, Ovarian cancer; 10 µM, 48 h
# Method: (§1) The cancer screening panel’s human tumor 60 cell lines were cultured in the RPMI 1640 medium with (5%) fetal bovine serum and (2 mM) L-glutamine. For a screening experiment, cells were injected onto 96-well microtiter plates (100 µL), with plating densities varying from 5 to 40 × 10^3 cells per well, depending on different cell lines’ doubling times. Before introducing experimental drugs, the microtiter plates were incubated overnight at 37 °C, 95% air, 5% CO2, and 100% relative humidity after cell injection. TCA was employed to keep each cell line in place overnight, resembling a computation of the cell population for every cell line at the time of the addition of the drug. The experimental drugs were chilled after solubilization in DMSO at 400 times the final maximum test concentration. At the moment of the addition of the drug, the aliquot of the frozen concentrate was thawed and diluted to twice the required final maximum concentration with the complete medium containing (50 µg/mL) gentamicin. […] The bound dye was then solubilized with a (10 mM) trizma base, and absorbance was calculated at 515 nm on an automatic reader. […] The % growth of treated cells was established using seven absorbance measurements and compared to untreated control cells [57].
# [1] = target: T1, telomerase inside living cancer cells NCI-H23 (Homo sapiens, UniProt O14746); test: Living-cell TRAP assay, NCI-H23; format: cell-based; conditions: percent of control cells, 10 µM, 48 h
# T1 construct: host or cells: NCI-H23
# T1 sequence (O14746 whole entry): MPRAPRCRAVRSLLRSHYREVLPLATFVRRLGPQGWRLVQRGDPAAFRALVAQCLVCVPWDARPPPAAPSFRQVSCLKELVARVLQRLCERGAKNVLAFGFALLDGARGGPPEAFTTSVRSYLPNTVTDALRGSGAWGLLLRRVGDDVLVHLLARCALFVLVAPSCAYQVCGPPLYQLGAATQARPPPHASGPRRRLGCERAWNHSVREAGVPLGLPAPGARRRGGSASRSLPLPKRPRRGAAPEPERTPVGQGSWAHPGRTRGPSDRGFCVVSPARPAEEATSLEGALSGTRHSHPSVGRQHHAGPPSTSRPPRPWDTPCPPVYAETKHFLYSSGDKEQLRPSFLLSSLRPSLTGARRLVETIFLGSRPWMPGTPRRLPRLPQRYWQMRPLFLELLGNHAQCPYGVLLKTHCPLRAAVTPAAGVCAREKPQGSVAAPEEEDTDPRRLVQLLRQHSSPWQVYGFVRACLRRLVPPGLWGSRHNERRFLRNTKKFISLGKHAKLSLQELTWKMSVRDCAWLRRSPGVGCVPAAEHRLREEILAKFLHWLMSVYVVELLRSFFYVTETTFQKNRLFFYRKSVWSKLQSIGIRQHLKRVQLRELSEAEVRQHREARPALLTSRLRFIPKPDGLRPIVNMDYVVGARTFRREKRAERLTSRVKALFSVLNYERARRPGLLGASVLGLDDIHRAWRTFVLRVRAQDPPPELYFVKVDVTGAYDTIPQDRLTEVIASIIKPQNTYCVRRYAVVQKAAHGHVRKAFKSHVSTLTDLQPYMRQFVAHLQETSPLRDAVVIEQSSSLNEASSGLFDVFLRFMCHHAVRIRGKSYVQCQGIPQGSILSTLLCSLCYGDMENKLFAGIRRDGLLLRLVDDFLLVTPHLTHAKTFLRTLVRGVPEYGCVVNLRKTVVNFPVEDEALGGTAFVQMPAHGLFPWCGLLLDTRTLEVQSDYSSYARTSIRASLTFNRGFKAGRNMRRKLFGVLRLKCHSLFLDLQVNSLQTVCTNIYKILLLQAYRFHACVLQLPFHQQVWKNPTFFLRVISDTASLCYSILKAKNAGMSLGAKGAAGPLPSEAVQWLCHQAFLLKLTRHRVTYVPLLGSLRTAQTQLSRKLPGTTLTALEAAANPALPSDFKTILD
# T1 sequence (O60832 whole entry partner): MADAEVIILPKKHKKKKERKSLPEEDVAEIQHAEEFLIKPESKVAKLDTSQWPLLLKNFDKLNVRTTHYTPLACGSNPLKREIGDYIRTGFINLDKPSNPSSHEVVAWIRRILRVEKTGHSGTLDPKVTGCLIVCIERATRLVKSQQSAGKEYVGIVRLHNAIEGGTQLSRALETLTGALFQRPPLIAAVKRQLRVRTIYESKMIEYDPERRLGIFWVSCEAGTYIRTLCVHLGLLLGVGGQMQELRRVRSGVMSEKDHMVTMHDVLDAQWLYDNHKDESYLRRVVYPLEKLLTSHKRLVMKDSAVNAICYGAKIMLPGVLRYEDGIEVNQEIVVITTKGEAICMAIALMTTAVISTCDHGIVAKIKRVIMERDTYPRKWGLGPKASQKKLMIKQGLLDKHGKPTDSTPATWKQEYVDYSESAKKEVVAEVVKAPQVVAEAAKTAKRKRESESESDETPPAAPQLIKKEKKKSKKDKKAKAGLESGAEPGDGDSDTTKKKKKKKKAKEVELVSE
# T1 sequence (Q9NX24 whole entry partner): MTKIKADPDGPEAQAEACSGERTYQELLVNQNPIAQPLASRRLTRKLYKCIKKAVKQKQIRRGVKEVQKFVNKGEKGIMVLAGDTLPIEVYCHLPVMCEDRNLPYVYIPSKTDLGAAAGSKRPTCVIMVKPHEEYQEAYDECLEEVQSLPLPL
# T1 sequence (Q9NPE3 whole entry partner): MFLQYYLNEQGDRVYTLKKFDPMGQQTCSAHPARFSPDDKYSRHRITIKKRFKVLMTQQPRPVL
# T1 sequence (Q9NY12 whole entry partner): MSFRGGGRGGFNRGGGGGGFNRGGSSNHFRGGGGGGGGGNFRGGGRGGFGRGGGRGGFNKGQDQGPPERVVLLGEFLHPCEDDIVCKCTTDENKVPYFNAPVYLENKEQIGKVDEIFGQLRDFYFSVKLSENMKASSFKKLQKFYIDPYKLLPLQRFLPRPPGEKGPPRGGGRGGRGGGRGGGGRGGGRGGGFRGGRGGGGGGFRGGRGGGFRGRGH
# T1 sequence (Q9BUR4 whole entry partner): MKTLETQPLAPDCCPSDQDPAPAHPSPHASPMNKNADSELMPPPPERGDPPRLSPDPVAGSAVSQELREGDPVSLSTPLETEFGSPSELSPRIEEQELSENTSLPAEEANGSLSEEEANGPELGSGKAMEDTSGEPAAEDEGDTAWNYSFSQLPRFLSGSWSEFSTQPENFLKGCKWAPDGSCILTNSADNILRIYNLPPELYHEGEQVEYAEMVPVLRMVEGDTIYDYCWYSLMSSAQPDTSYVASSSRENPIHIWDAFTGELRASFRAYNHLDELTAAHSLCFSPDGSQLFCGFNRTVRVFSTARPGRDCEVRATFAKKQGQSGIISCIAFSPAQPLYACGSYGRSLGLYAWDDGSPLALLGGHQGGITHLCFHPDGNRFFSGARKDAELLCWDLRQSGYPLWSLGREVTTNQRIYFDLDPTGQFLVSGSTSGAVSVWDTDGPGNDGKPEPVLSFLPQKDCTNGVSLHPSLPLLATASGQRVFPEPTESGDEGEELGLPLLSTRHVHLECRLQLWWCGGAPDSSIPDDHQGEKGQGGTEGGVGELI
# Method: (§2) The Telomeric Repeat Amplification Protocol (TRAP) [61] was used to evaluate the activity of telomerase, with some changes that we have previously described [62, 63]. A549 cells (human epithelial cell lung carcinoma, ATCC, Manassas, VA) were lysed in (10 mM) Tris-HCl, pH 7.5, (1 mM) EGTA, (1 mM) MgCl2, (5 mM) 2-mercaptoethanol, (0.1 mM) PMSF, (0.5%) CHAPS, and (10%) glycerol (Sigma-Aldrich, St. Louis, MO, USA) and centrifugation. The supernatants were kept at -80 °C. The BCA-1 Protein Assay Kit was used to assess the protein concentration in cell extracts (Sigma-Aldrich, St. Louis, MO, USA). […] To inactivate telomerase, the cells were elongated for 30 min at 37 °C and 10 min at 96 °C. Copy CX-primer was added to the elongation mixture along with 0.1 μL ([NT]) and 2.5 units Taq-polymerase, followed by the following PCR: 94 °C for 5 min; 30 cycles of 94 °C for 30 s, 50 °C for 30 s, and 72 °C for 40 s, and 72 °C for 5 min. TBE buffer and (12%) nondenaturing PAAG electrophoresis were used to visualize the PCR product. 10 μL of each sample was placed in each well of gel comb. The gels were stained with the SYBR Green I (Invitrogen, Grand Island, NY, USA), then photographed under the UV light in ChemiDocTM XRS imaging system and analyzed with GelAnalyzer 2010.
# [2] = target: T2, telomerase inside living cancer cells HCC44 (Homo sapiens, UniProt O14746); test: Living-cell TRAP assay, HCC44; format: cell-based; conditions: percent of control cells, 10 µM, 48 h
# T2 construct: host or cells: HCC44
# T2 sequence (O14746 whole entry): as the sequence (O14746 whole entry) above
# T2 sequence (O60832 whole entry partner): as the sequence (O60832 whole entry partner) above
# T2 sequence (Q9NX24 whole entry partner): as the sequence (Q9NX24 whole entry partner) above
# T2 sequence (Q9NPE3 whole entry partner): as the sequence (Q9NPE3 whole entry partner) above
# T2 sequence (Q9NY12 whole entry partner): as the sequence (Q9NY12 whole entry partner) above
# T2 sequence (Q9BUR4 whole entry partner): as the sequence (Q9BUR4 whole entry partner) above
# Method: as §2
# NCI-H460 = test: NCI-60 in vitro anticancer screening (SRB); conditions: NCI-H460, Lung cancer (NSCLC); 10 µM, 48 h
# Method: as §1
# NCI/ADR-RES = test: NCI-60 in vitro anticancer screening (SRB); conditions: Ovarian cancer, 10 µM, 48 h
# Method: as §1
# MALME-3M = test: NCI-60 in vitro anticancer screening (SRB); conditions: Melanoma, 10 µM, 48 h
# Method: as §1
# SK-OV-3 = test: NCI-60 in vitro anticancer screening (SRB); conditions: SK-OV-3, Ovarian cancer; 10 µM, 48 h
# Method: as §1
# ACHN = test: NCI-60 in vitro anticancer screening (SRB); conditions: Renal cancer, 10 µM, 48 h
# Method: (§3) The cancer screening panel’s human tumor 60 cell lines were cultured in the RPMI 1640 medium with (5%) fetal bovine serum and (2 mM) L-glutamine. For a screening experiment, cells were injected onto 96-well microtiter plates (100 µL), with plating densities varying from 5 to 40 × 10^3 cells per well, depending on different cell lines’ doubling times. Before introducing experimental drugs, the microtiter plates were incubated overnight at 37 °C, 95% air, 5% CO2, and 100% relative humidity after cell injection. TCA was employed to keep each cell line in place overnight, resembling a computation of the cell population for every cell line at the time of the addition of the drug. The experimental drugs were chilled after solubilization in DMSO at 400 times the final maximum test concentration. At the moment of the addition of the drug, the aliquot of the frozen concentrate was thawed and diluted to twice the required final maximum concentration with the complete medium containing (50 µg/mL) gentamicin. The required final concentration of the drug (10 µM) was reached by adding 100 µL aliquots of these definite dilutions of the drug to suitable microtiter wells previously holding a medium of 100 µL. […] The bound dye was then solubilized with a (10 mM) trizma base, and absorbance was calculated at 515 nm on an automatic reader. […]
# T-47D = test: NCI-60 in vitro anticancer screening (SRB); conditions: Breast cancer, 10 µM, 48 h
# Method: as §3
# K-562 = test: NCI-60 in vitro anticancer screening (SRB); conditions: K-562, Leukemia; 10 µM, 48 h
# Method: as §1
# DU-145 = test: NCI-60 in vitro anticancer screening (SRB); conditions: DU-145, Prostate cancer; 10 µM, 48 h
# Method: as §1
# MCF7 = test: NCI-60 in vitro anticancer screening (SRB); conditions: MCF7, Breast cancer; 10 µM, 48 h
# Method: as §3
# M14 = test: NCI-60 in vitro anticancer screening (SRB); conditions: M14, Melanoma; 10 µM, 48 h
# Method: as §3
# HOP-62 = test: NCI-60 in vitro anticancer screening (SRB); conditions: HOP-62, Lung cancer (NSCLC); 10 µM, 48 h
# Method: as §1
# NCI-H226 = test: NCI-60 in vitro anticancer screening (SRB); conditions: NCI-H226, Lung cancer (NSCLC); 10 µM, 48 h
# Method: as §1
# U251 = test: NCI-60 in vitro anticancer screening (SRB); conditions: U251, CNS cancer; 10 µM, 48 h
# Method: as §1
# UACC-62 = test: NCI-60 in vitro anticancer screening (SRB); conditions: UACC-62, Melanoma; 10 µM, 48 h
# Method: as §1
# OVCAR-5 = test: NCI-60 in vitro anticancer screening (SRB); conditions: OVCAR-5, Ovarian cancer; 10 µM, 48 h
# Method: as §1
# COLO 205 = test: NCI-60 in vitro anticancer screening (SRB); conditions: COLO 205, Colon cancer; 10 µM, 48 h
# Method: as §1
# HCT-15 = test: NCI-60 in vitro anticancer screening (SRB); conditions: HCT-15, Colon cancer; 10 µM, 48 h
# Method: as §1
# SN12C = test: NCI-60 in vitro anticancer screening (SRB); conditions: Renal cancer, 10 µM, 48 h
# Method: as §1
# SF-295 = test: NCI-60 in vitro anticancer screening (SRB); conditions: SF-295, CNS cancer; 10 µM, 48 h
# Method: as §1
# A549/ATCC = test: NCI-60 in vitro anticancer screening (SRB); conditions: Lung cancer (NSCLC), 10 µM, 48 h
# Method: as §1
# HL-60(TB) = test: NCI-60 in vitro anticancer screening (SRB); format: cell-based, human; conditions: Leukemia, 10 µM, 48 h
# SK-MEL-5 = test: NCI-60 in vitro anticancer screening (SRB); conditions: SK-MEL-5, Melanoma; 10 µM, 48 h
# Method: as §3
# OVCAR-8 = test: NCI-60 in vitro anticancer screening (SRB); conditions: OVCAR-8, Ovarian cancer; 10 µM, 48 h
# Method: as §1
# SF-539 = test: NCI-60 in vitro anticancer screening (SRB); conditions: SF-539, CNS cancer; 10 µM, 48 h
# Method: as §1
# MOLT-4 = test: NCI-60 in vitro anticancer screening (SRB); conditions: MOLT-4, Leukemia; 10 µM, 48 h
# Method: as §1
# SK-MEL-2 = test: NCI-60 in vitro anticancer screening (SRB); conditions: SK-MEL-2, Melanoma; 10 µM, 48 h
# Method: as §3
# KM12 = test: NCI-60 in vitro anticancer screening (SRB); conditions: KM12, Colon cancer; 10 µM, 48 h
# Method: as §1
# A498 = test: NCI-60 in vitro anticancer screening (SRB); conditions: A498, Renal cancer; 10 µM, 48 h
# Method: as §3
# EKVX = test: NCI-60 in vitro anticancer screening (SRB); conditions: Lung cancer (NSCLC), 10 µM, 48 h
# Method: as §1
# UO-31 = test: NCI-60 in vitro anticancer screening (SRB); conditions: UO-31, Renal cancer; 10 µM, 48 h
# Method: as §1
# [3] = target: T3, telomerase inside living cancer cells A549 (Homo sapiens, UniProt O14746); test: Living-cell TRAP assay, A549; format: cell-based; conditions: percent of control cells, 10 µM, 48 h
# T3 construct: host or cells: A549
# T3 sequence (O14746 whole entry): as the sequence (O14746 whole entry) above
# T3 sequence (O60832 whole entry partner): as the sequence (O60832 whole entry partner) above
# T3 sequence (Q9NX24 whole entry partner): as the sequence (Q9NX24 whole entry partner) above
# T3 sequence (Q9NPE3 whole entry partner): as the sequence (Q9NPE3 whole entry partner) above
# T3 sequence (Q9NY12 whole entry partner): as the sequence (Q9NY12 whole entry partner) above
# T3 sequence (Q9BUR4 whole entry partner): as the sequence (Q9BUR4 whole entry partner) above
# Method: as §2
smiles,measurement,setting,value
"N#C/C(=C\c1ccc2ccccc2c1)C(=O)Nc1sc2c(c1C#N)CCCC2 [Compound 36b, (2E)-2-Cyano-N-(3-cyano-4,5,6,7-tetrahydro-1-benzothiophen-2-yl)-3-(naphthalen-2-yl)prop-2-enamide]",Growth Percent,OVCAR-3,98.78%
same,% Telomerase Activity in Cancer Cells,[1],25.1 ± 3.2%
same,% Telomerase Activity in Cancer Cells,[2],54.4 ± 4.4%
same,Growth Percent,NCI-H460,102.88%
same,Growth Percent,NCI/ADR-RES,99.44%
same,Growth Percent,MALME-3M,109.97%
same,Growth Percent,SK-OV-3,89.18%
same,Growth Percent,ACHN,103.29%
same,Growth Percent,T-47D,97.26%
same,Growth Percent,K-562,99.98%
same,Growth Percent,DU-145,99.89%
same,Growth Percent,MCF7,92.41%
same,Growth Percent,M14,94.57%
same,Growth Percent,HOP-62,98.36%
same,Growth Percent,NCI-H226,89.78%
same,Growth Percent,U251,98.73%
same,Growth Percent,UACC-62,91.73%
same,Growth Percent,OVCAR-5,104.98%
same,Growth Percent,COLO 205,103.10%
same,Growth Percent,HCT-15,99.95%
same,Growth Percent,SN12C,100.72%
same,Growth Percent,SF-295,95.53%
same,Growth Percent,A549/ATCC,100.18%
same,Growth Percent,HL-60(TB),99.47%
same,Growth Percent,SK-MEL-5,97.65%
same,Growth Percent,OVCAR-8,102.91%
same,Growth Percent,SF-539,98.71%
same,Growth Percent,MOLT-4,100.37%
same,Growth Percent,SK-MEL-2,100.31%
same,Growth Percent,KM12,101.43%
same,Growth Percent,A498,99.38%
same,Growth Percent,EKVX,92.47%
same,Growth Percent,UO-31,81.95%
same,% Telomerase Activity in Cancer Cells,[3],18.1 ± 5.4%
